Experimental data published in US20100144733A1, “Compounds, compositions and methods comprising heteroaromatic derivatives” (Institute for OneWorld Health, priority 2008, published 2010).

What was measured:
CFTR = molecular target: T1, CFTR (Homo sapiens, UniProt P13569); test: T84 assay (FLIPR membrane potential dye, forskolin/IBMX-stimulated CFTR channel activity); type: cell-based; settings: imidazole and triazole-containing compounds (Tables 13, 14, 14′), read-out: IC50 (μM) (T84 assay)
T1 construct: endogenous in cells; host or cells: T84 human colonic cells (ECACC)
Method in brief: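 Fluorescence from a membrane potential dye in T84 monolayers (HBSS with 10 mM Hepes) is followed each second for 150 s. Cells are exposed to test compound during the 45 min dye loading, then challenged with forskolin (10 μM) and IBMX (100 μM) to open CFTR. Inhibitors suppress the depolarization-driven fluorescence increase.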

CHO-CFTR cell line = molecular target: T2, CHO-CFTR cell line (Homo sapiens, UniProt P13569); test: CHO-CFTR assay (FLIPR assay, same conditions as the T84 assay); type: cell-based; settings: imidazole and triazole-containing compounds
T2 construct: expressed in transfected cells; host or cells: CHO (CHO-CFTR cell line)
T2 sequence (P13569 whole entry): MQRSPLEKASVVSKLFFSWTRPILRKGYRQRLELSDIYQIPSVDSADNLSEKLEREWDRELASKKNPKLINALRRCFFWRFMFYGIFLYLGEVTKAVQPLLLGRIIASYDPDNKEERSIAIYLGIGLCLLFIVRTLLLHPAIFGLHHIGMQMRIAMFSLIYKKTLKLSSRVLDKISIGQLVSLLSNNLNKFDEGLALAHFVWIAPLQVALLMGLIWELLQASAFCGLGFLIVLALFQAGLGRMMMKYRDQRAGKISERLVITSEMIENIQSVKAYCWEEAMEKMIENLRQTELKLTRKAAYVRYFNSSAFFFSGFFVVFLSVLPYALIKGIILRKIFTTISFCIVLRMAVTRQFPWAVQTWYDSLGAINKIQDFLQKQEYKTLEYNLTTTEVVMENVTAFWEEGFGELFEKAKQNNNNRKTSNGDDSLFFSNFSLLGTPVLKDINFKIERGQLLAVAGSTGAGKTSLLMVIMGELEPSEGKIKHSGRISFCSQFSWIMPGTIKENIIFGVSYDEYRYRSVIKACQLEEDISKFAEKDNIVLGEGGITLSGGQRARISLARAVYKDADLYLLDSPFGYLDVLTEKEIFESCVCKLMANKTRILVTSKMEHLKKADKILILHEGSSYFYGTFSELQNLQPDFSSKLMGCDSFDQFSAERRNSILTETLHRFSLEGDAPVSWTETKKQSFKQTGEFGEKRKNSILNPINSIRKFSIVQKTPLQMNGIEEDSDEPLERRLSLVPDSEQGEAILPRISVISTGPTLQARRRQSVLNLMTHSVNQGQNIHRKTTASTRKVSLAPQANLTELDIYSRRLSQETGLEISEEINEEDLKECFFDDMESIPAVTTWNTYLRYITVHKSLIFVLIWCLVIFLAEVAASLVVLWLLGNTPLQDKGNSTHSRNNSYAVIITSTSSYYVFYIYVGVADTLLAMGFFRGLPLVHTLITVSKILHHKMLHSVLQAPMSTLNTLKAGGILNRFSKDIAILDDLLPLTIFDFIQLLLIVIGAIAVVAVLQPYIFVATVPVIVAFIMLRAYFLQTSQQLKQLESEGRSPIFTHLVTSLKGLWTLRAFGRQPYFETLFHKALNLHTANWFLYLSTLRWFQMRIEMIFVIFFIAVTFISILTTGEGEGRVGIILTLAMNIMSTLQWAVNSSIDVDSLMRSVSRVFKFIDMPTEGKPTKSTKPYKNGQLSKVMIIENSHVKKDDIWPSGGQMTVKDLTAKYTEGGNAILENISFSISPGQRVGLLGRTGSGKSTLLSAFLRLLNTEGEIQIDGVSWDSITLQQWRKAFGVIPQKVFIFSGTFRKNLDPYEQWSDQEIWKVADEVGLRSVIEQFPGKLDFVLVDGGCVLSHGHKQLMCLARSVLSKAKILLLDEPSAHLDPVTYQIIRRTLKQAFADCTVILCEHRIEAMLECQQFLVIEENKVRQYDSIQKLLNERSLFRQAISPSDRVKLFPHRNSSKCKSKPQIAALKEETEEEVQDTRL

T1 sequence (P13569 whole entry): as above

Row | SMILES | IC50 (CFTR) | IC50 (CHO-CFTR cell line)
1 | C=CCN(Cc1ccc(C(C)(C)C)cc1)C(=O)c1ncn(-c2cc(Cl)c(O)c(Cl)c2)n1 [51i, N-allyl-N-(4-tert-butylbenzyl)-1-(3,5-dichloro-4-hydroxyphenyl)-1H-1,2,4-triazole-3-carboxamide] | 0.63 µM | 5.13 µM
2 | Oc1c(Cl)cc(-n2cnc(C(O)(c3cc(F)cc(F)c3)c3cc(F)cc(F)c3)n2)cc1Cl [52i, 4-(3-(Bis(3,5-difluorophenyl)(hydroxy)methyl)-1H-1,2,4-triazol-1-yl)-2,6-dichlorophenol] | 13.6 µM | 7.8 µM
3 | Oc1c(Cl)cc(-n2cnc(C(O)(c3cccc(F)c3)c3cccc(F)c3)n2)cc1Cl [54i, 4-(3-(bis(3-fluorophenyl)(hydroxy)methyl)-1H-1,2,4-triazol-1-yl)-2,6-dichlorophenol] | 22.9 µM | 22.7 µM
4 | Oc1c(Cl)cc(-n2cnc(C(O)(Cc3ccc(F)cc3)Cc3ccc(F)cc3)n2)cc1Cl [56i, 4-(3-(1,3-bis(4-fluorophenyl)-2-hydroxypropan-2-yl)-1H-1,2,4-triazol-1-yl)-2,6-dichlorophenol] | 20.4 µM | 25.5 µM
5 | Oc1c(Cl)cc(-n2cnc(C(O)(Cc3ccccc3F)Cc3ccccc3F)n2)cc1Cl [59i, 4-(3-(1,3-bis(2-fluorophenyl)-2-hydroxypropan-2-yl)-1H-1,2,4-triazol-1-yl)-2,6-dichlorophenol] | 21.1 µM | 5.45 µM
6 | CC(C)(C)CCN(Cc1ccccc1)C(=O)c1ncn(-c2cc(Cl)c(O)c(Cl)c2)n1 [60i, N-Benzyl-1-(3,5-dichloro-4-hydroxyphenyl)-N-(3,3-dimethylbutyl)-1H-1,2,4-triazole-3-carboxamide] | 16.2 µM | 5.45 µM
7 | O=C(NCc1ccc(Oc2cccc(N3CCCC3)c2)cc1)c1ncn(-c2cc(Cl)c(O)c(Cl)c2)n1 [69i, 1-(3,5-dichloro-4-hydroxyphenyl)-N-(4-(3-(pyrrolidin-1-yl)phenoxy)benzyl)-1H-1,2,4-triazole-3-carboxamide] | 4.3 µM | 5.99 µM
8 | O=C(NCc1ccc(Oc2ccc(OCc3ccccc3)c(F)c2)cc1)c1ncn(-c2cc(Cl)c(O)c(Cl)c2)n1 [71i, N-(4-(4-(benzyloxy)-3-fluorophenoxy)benzyl)-1-(3,5-dichloro-4-hydroxyphenyl)-1H-1,2,4-triazole-3-carboxamide] | 8.06 µM | 31 µM
9 | O=C(NCc1ccc(Oc2ccc(CO)cc2)cc1)c1ncn(-c2cc(Cl)c(O)c(Cl)c2)n1 [76i, 1-(3,5-dichloro-4-hydroxyphenyl)-N-(4-(4-(hydroxymethyl)phenoxy)benzyl)-1H-1,2,4-triazole-3-carboxamide] | 11.3 µM | 12.2 µM
10 | CC(C)(C)CCN(Cc1cccnc1)C(=O)c1ncn(-c2cc(Cl)c(O)c(Cl)c2)n1 [78i, 1-(3,5-dichloro-4-hydroxyphenyl)-N-(3,3-dimethylbutyl)-N-(pyridin-3-ylmethyl)-1H-1,2,4-triazole-3-carboxamide] | 11.4 µM | 13.7 µM

Next, values leading:

Row | IC50 (CFTR) | IC50 (CHO-CFTR cell line) | SMILES
11 | 1.16 µM | 18.5 µM | CC(C)(C)C(=O)CN(Cc1ccc(C(C)(C)C)cc1)C(=O)c1ncn(-c2cc(Cl)c(O)c(Cl)c2)n1 [50i, N-(4-tert-butylbenzyl)-1-(3,5-dichloro-4-hydroxyphenyl)-N-(3,3-dimethyl-2-oxobutyl)-1H-1,2,4-triazole-3-carboxamide]
12 | 13 µM | 4.27 µM | Oc1c(Cl)cc(-n2cnc(C(O)(c3cccc(Cl)c3)c3cccc(Cl)c3)n2)cc1Cl [53i, 4-(3-(bis(3-chlorophenyl)(hydroxy)methyl)-1H-1,2,4-triazol-1-yl)-2,6-dichlorophenol]
13 | 17.2 µM | 6.94 µM | Oc1c(Cl)cc(-n2cnc(C(O)(c3ccc(F)c(F)c3)c3ccc(F)c(F)c3)n2)cc1Cl [55i, 4-(3-(bis(3,4-difluorophenyl)(hydroxy)methyl)-1H-1,2,4-triazol-1-yl)-2,6-dichlorophenol]
14 | 14.7 µM | 3.88 µM | Oc1c(Cl)cc(-n2cnc(C(O)(c3cc(F)cc(Cl)c3)c3cc(F)cc(Cl)c3)n2)cc1Cl [57i, 4-(3-(bis(3-chloro-5-fluorophenyl)(hydroxy)methyl)-1H-1,2,4-triazol-1-yl)-2,6-dichlorophenol]
15 | 11.3 µM | 17 µM | CC(C)(C)c1ccc(C(O)(c2ccc(C(C)(C)C)cc2)c2ncn(-c3cc(Cl)c(O)c(Cl)c3)n2)cc1 [58i, 4-(3-(bis(4-tert-butylphenyl)(hydroxy)methyl)-1H-1,2,4-triazol-1-yl)-2,6-dichlorophenol]
16 | 3.02 µM | 6.72 µM | CN(C)c1ccc(Oc2ccc(CNC(=O)c3ncn(-c4cc(Cl)c(O)c(Cl)c4)n3)cc2)cc1 [63i, 1-(3,5-dichloro-4-hydroxyphenyl)-N-(4-(4-(dimethylamino)phenoxy)benzyl)-1H-1,2,4-triazole-3-carboxamide]
17 | 5.83 µM | 0.86 µM | O=C(NCc1ccc(Oc2cc(F)c(F)c(F)c2)cc1)c1ncn(-c2cc(Cl)c(O)c(Cl)c2)n1 [65i, 1-(3,5-dichloro-4-hydroxyphenyl)-N-(4-(3,4,5-trifluorophenoxy)benzyl)-1H-1,2,4-triazole-3-carboxamide]
18 | 3.2 µM | 11.3 µM | O=C(NCc1ccc(Oc2ccc(OC(F)(F)F)cc2)cc1)c1ncn(-c2cc(Cl)c(O)c(Cl)c2)n1 [66i, 1-(3,5-dichloro-4-hydroxyphenyl)-N-(4-(4-(trifluoromethoxy)phenoxy)benzyl)-1H-1,2,4-triazole-3-carboxamide]
19 | 6.4 µM | 14.7 µM | O=C(NCc1ccc(Oc2ccc(F)c(C(F)(F)F)c2)cc1)c1ncn(-c2cc(Cl)c(O)c(Cl)c2)n1 [67i, 1-(3,5-dichloro-4-hydroxyphenyl)-N-(4-(4-fluoro-3-(trifluoromethyl)phenoxy)benzyl)-1H-1,2,4-triazole-3-carboxamide]
20 | 5.34 µM | 19.1 µM | CC(C)(C)c1ccc(Oc2ccc(CNC(=O)c3ncn(-c4cc(Cl)c(O)c(Cl)c4)n3)cc2)cc1 [68i, N-(4-(4-tert-butylphenoxy)benzyl)-1-(3,5-dichloro-4-hydroxyphenyl)-1H-1,2,4-triazole-3-carboxamide]
21 | 4.72 µM | 19.4 µM | O=C(NCc1ccc(Oc2ccc(Cl)c(C(F)(F)F)c2)cc1)c1ncn(-c2cc(Cl)c(O)c(Cl)c2)n1 [70i, N-(4-(4-chloro-3-(trifluoromethyl)phenoxy)benzyl)-1-(3,5-dichloro-4-hydroxyphenyl)-1H-1,2,4-triazole-3-carboxamide]
22 | 7.6 µM | 12.3 µM | O=C(NCc1ccc(Oc2ccc(OCc3ccccc3)c(Cl)c2)cc1)c1ncn(-c2cc(Cl)c(O)c(Cl)c2)n1 [72i, N-(4-(4-(benzyloxy)-3-chlorophenoxy)benzyl)-1-(3,5-dichloro-4-hydroxyphenyl)-1H-1,2,4-triazole-3-carboxamide]
23 | 30.7 µM | 17 µM | O=C(NCc1ccc(Oc2cc(Cl)c(OCc3ccccc3)c(Cl)c2)cc1)c1ncn(-c2cc(Cl)c(O)c(Cl)c2)n1 [73i]
24 | 15.6 µM | 40.1 µM | O=C(c1ncn(-c2cc(Cl)c(O)c(Cl)c2)n1)N(Cc1ccccc1)Cc1cccnc1 [75i, N-benzyl-1-(3,5-dichloro-4-hydroxyphenyl)-N-(pyridin-3-ylmethyl)-1H-1,2,4-triazole-3-carboxamide]
